Experimental data as given in US7807462B2, “Method for producing a functional neuron” (University of Medicine and Dentistry of New Jersey, priority 2004, dated 2010).

Columns and labels:
[1] = system: adult human mesenchymal stem cells (MSC); test: Immunofluorescence for neural-specific markers in RA-treated MSC; type: cell-based
Description: It was subsequently determined whether the retinoic acid-treated MSC express neuron-specific proteins. Cells were labeled for MAP2, which predominantly labels the cell bodies and dendrites; Neurofilament to stain for cell bodies and axons; and nestin for changes in morphology to neuronal cells. Synaptophysin was also analyzed as it is an indicator of synaptic regions. Labeling with anti-MAP2 and anti-synaptophysin were performed at different times following retinoic acid treatment. Untreated MSCs stained dim with MAP2, but negative for synaptophysin. In contrast, retinoic acid-treated cells stained bright for MAP2 at each time point, i.e., day 6, day 9 and day 12 retinoic acid treatment. […] This pattern of synaptophysin increased up to day 12 of treatment. Patterns were similar in ten different experiments, each with MSC from a different bone marrow donor.
RA-treated MSCs were washed with PBS (pH 7.4) and incubated for 1 hour at room temperature with the following antibodies: rabbit anti-MAP2 and/or synaptophysin monoclonal antibody at final concentrations of 1/500 and 1/200 respectively. In other labeling studies, cells were incubated with anti-GFAP, anti-neurofilament or anti-nestin, each at 1/500 final concentration. Antibodies were diluted in 0.05% TWEEN™/PBS (PBT) for membrane permeabilization. Primary antibodies were developed with secondary FITC-goat anti-rabbit IgG and PE-rat anti-mouse κ, both at final concentrations of 1/500. Secondary antibodies were incubated for 45 minutes at room temperature in the dark. After labeling, cells were fixed with 0.4% paraformaldehyde and then covered with VECTASHIELD®. Slides were immediately examined on a 3-color immunofluorescence microscope (NIKON® Instruments Inc., Melvelle, N.Y.).

[2] = system: adult human mesenchymal stem cells (MSC); test: Microscopic examination of morphology of retinoic acid-treated MSC; type: cell-based; settings: RA 30 μM
Description: By way of illustration, MSC were treated with all-trans-retinoic acid and examined microscopically at 400× magnification. The purpose was to observe morphological changes as the cells were exposed to a known differentiating agent.

[3] = system: PPT-I gene expression in retinoic acid-treated MSC; test: In situ hybridization for β-PPT-I in RA-treated MSC; type: cell-based, human; settings: cocktail of three antisense oligomers; three bone marrow donors
Description: Thus, it was determined whether the PPT-I gene was expressed in retinoic acid-treated MSC by in situ hybridization with a cocktail of three oligomers.
MSC were cultured as above on superfrost slides and then washed with 0.05% PBT. Cells were hybridized by incubation with 500 μL of hybridization buffer (Sigma, St. Louis, Mo.). After 2 hours, slides were incubated with 200 μL of hybridization buffer containing a cocktail (200 ng/mL) of denatured biotin-conjugated β-PPT-1-specific oligo probes based on GENBANK Accession No. U37529 (Table 1). Control slides were incubated with a mixture of similar oligos in the sense orientations. Slides were subsequently incubated overnight at 37° C. in a humid chamber. Slides were washed with SSC solution and hybrids detected by incubation for 1 hour at room temperature with FITC-streptavidin at 1/500 dilution. Slides were covered with PBS and immediately examined with an immunofluorescence microscope.

[4] = system: MSC treated with retinoic acid for 6 days (functional neurons); test: Immunofluorescence/immunohistochemistry for substance P (SP) in RA-treated MSC; type: cell-based, human
Description: Administration or implantation of cultured neurons in a damaged tissue, in vivo, is influenced by the microenvironment. Thus, to determine whether a functional neuron could be influenced to express a particular neurotransmitter, expression of the preprotachykinin-I gene (PPT-I), which encodes the neurotransmitter substance P (SP), was analyzed. Regulation of the PPT-I gene has been studied in the context of inflammatory mediators that are presumed to be at the site of neural injury. […] Furthermore the receptor for IL-1 has been reported in neurons (Coti, et al. (2004) Frontier Biosci. 9:1433-1449). MSC, treated with retinoic acid for 6 days, were stimulated with 10 ng/mL of IL-1α for 16 hours and the cells studied for SP production by immunofluorescence using anti-SP. Treated cells were also labeled for synaptovesicle 2 to determine if SP is stored in synaptic vesicle. […] Retinoic acid-treated MSC were labeled with anti-SP and anti-synaptovesicle. The two labels were overlaid to gain insight as to the location of SP. […]
MSC on superfrost slides were treated with RA. […] The latter determined whether SP was stored in synaptic vesicles. SP and anti-synaptic vesicle protein 2 were detected with anti-rabbit IgG FITC and anti-mouse IgG1 κ PE, respectively. […]

[5] = system: adult human mesenchymal stem cells (MSC); test: Whole-cell patch clamp electrophysiological recordings of RA-treated MSC; settings: for postsynaptic current amplitude / postsynaptic current decay time / postsynaptic current frequency / postsynaptic current half rise time: voltage clamp
[6] = functional neurons in culture for 6 days

With `CC1=C(/C=C/C(C)=C/C=C/C(C)=C/C(=O)O)C(C)(C)CCC1` [retinoic acid, All-trans-retinoic acid] the synaptophysin fluorescence ([1]; 6-day treatment) was “slight fluorescence”, the “glial fibrillary acidic protein (GFAP) staining” value ([1]; all treated cells) was “negative” and the synaptophysin fluorescence ([1]; day 9 of treatment) was “brighter fluorescence”. The MAP2 staining ([1]; each time point: day 6, day 9 and day 12 of treatment, ten experiments) was “bright”, the “percentage of functional neurons developed, by immunostaining for neurofilament, MAP2 and nestin” value ([1]; n=100) was 80±10 percentage and the synaptophysin fluorescence ([1]; up to day 12 of treatment) was “increased”. For the same molecule, the “morphology of treated MSC” value ([2]; day 4) was “neuron-like structures”, the “morphology of treated MSC” value ([2]; day 7) was “cell bodies with long thin processes and growth cones” and the “morphology of treated MSC” value ([2]; treated 1 day, 400× magnification) was “asymmetrical morphology”. The “PPT-I in situ hybridization fluorescence in cell bodies of neurons” value [3] was “bright fluorescence”, the “fluorescence for SP in unstimulated treated MSC” value ([4]; no IL-1α stimulation) was “dim fluorescence” and the resting membrane potential ([5]; current clamp) was −50 mV. For the same molecule, the “spontaneous action potential firing frequency” value ([5]; current clamp) was 20 s⁻¹, the action potential amplitude ([5]; current clamp, measured from resting membrane potential) was 63.4±17.4 mV and the action potential half-width ([5]; current clamp, n=768 events) was 19.25 ± 0.73 ms. The “action potential rise time” value ([5]; current clamp, n=768 events) was 3.39 ± 0.11 ms, the “fit of decay of postsynaptic currents” value [5, 6] was “single exponential function” and the “half rise time of some spontaneous post-synaptic currents” value [5, 6] was “around 2 ms”. For the same molecule, the “fit of decay of postsynaptic currents” value ([5]; functional neurons in culture for 15 days) was “two exponentials”, the “treated cells showing action potential by electrophysiology” value ([5]; n=25) was “one hundred” and the postsynaptic current amplitude ([5]; first set, n=171 events) was 29.9±1.3 pA. The “postsynaptic current decay time” value ([5]; first set, n=171 events) was 36.5 ± 1.0 ms, the postsynaptic current frequency ([5]; first set, n=171 events) was 2.49 s⁻¹ and the “postsynaptic current half rise time” value ([5]; first set, n=171 events) was 12.96 ± 0.89 ms. The postsynaptic current amplitude ([5]; second set, n=99 events) was 6.1±0.2 pA, the “postsynaptic current decay time” value ([5]; second set, n=99 events) was 31.3 ± 1.3 ms and the postsynaptic current frequency ([5]; second set, n=99 events) was 1.24 s⁻¹. The “postsynaptic current half rise time” value ([5]; second set, n=99 events) was 1.84 ± 0.13 ms.

B1: IL-1α: Recombinant human IL-1α (rhIL-1α) provided by Hoffman LaRoche (protein, UniProt P01583 113-271, looked up)
Interleukin-1 alpha: SAPFSFLSNVKYNFMRIIKYEFILNDALNQSIIRANDQYLTAAALHNLDEAVKFDMGAYKSSKDDAKITVILRISKTQLYVTAQDEDQPVLLKEMPEIPKTITGSETNLLFFWETHGTKNYFTSVAHPNLFIATKQDYWVCLAGGPPSITDFQILENQA
B1 was tested, and the “fluorescence intensity for SP” value ([4]; MSC treated with retinoic acid 6 days, stimulated with 10 ng/mL IL-1α for 16 hours, six experiments) was “bright fluorescence intensity”.
